Experimental data: patent US20230042653A1, “COMBINATIONS” (Recurium IP Holdings, LLC, priority 2019, published 2023)

System: MCF-7 xenograft tumor
Experiment: MCF-7 xenograft tumor model, combination study
Assay type: in vivo
Details: single agent, FIG. 3

Compound | TGI (10 mg/kg) [%] | TGI (dose not printed for the single agent) [%]
C[C@@H]1Cc2c([nH]c3ccccc23)[C@@H](c2c(F)cc(/C=C/C(=O)O)cc2F)N1C12CC(C1)C2 [Compound (A)] | 128.3 | –
C=CCn1c(=O)c2cnc(Nc3ccc(N4CCN(C)CC4)cc3)nc2n1-c1cccc(C(C)(C)O)n1 [Compound 1] | – | 122.8
